Measured values: the NIST ThermoML archive (doi:10.1016/j.fluid.2016.02.037)
“And” between values parts separate entries of the source, which are not always exact repeats. Equal values may be shown once.

Test: Molar enthalpy of transition or fusion
Conditions: Crystal; DSC

- Molar enthalpy of transition or fusion: 4.51 kcal/mol and 3.33 kcal/mol
Structure (SMILES): Cn1nnnc1SCC1=C(C(=O)[O-])N2C(=O)[C@@H](NC(=O)[C@H](OC=O)c3ccccc3)[C@H]2SC1.[Na+] [cefamandole nafate]
